The structures appear in SMILES notation.

Description: This formula contains 8% Glycolic acid or 0.1053 equivalents, neutralized with 2.4% ammonia hydroxide which is 0.0395 equivalents, resulting in a final formula pH of 3.8. The DMAE formula contains 2.58% malonic acid or 0.0496 equivalents, neutralized with 3.20% DMAE which is 0.0358 equivalents, resulting in a final formula pH of 5.5. […] The clinical involved (49) panelists over a six week period. Panelists were required to apply each product to one half of their face. After application, the panelists were required to answer a series of questions regarding relative effectiveness of the products.
The effect of pH was evaluated with another set of panelists numbering (58) persons utilizing a formulation at pH 6.5. In this set, 2.05% or 0.0394 equivalents of Malonic acid was neutralized with 3.17% or 0.0356 equivalents of DMAE resulting in a formula with a pH of 6.5. In this formula the malonic acid was 90.35% neutralized with the DMAE. In both DMAE formulas the lower pKa malonic acid group was totally neutralized, depending on the amount of malonic acid present in each formula. The second higher pKa acid group was partially neutralized with the remaining DMAE equivalents to bring the pH up to the desired value.

Turning to `CN(C)CCO.O=C(O)CC(=O)O` [DMAE malonate, dimethylaminoethanol (DMAE) malonate], the “improving the general condition of skin” value (compared with ammonium glycolate) is given as “as effective as ammonium glycolate”. The irritation entry (compared with the ammonium glycolate composition) was “considerably less irritating than the ammonium glycolate composition”.

Values taken from patent US20030224023A1, “Cosmetic compositions with hydroxy amine salts of malonic acid” (Unilever Home & Personal Care USA, Division of Conopco, Inc., priority 2002, published 2003).
